The values below come from patent US20220241255A1, “COMBINATION CONTAINING SGC ACTIVATORS AND MINERALOCORTICOID RECEPTOR ANTAGONISTS” (Bayer Pharma Aktiengesellschaft, priority 2016, published 2022).

Assay [1] has as its system L-NAME-treated transgenic renin rat (TGR(mRen2)27). The assay is described as follows: All-cause mortality / survival in L-NAME-treated renin transgenic rats. Format: in vivo. The settings on record: for Mortality: all-cause mortality during the study period, daily gavage, 15 animals per group, groups and doses per Table 1; for survival rate / animals died during the study period: finerenone 10 mg/kg od, compound of the formula (X) 1 mg/kg bid, alone or combined; for survival rate: over the study period, placebo survival 60%; for animals died during the study period: study terminated after 40% of placebo animals had died. The text has this:
(§1) 3.) L-NAME-treated transgenic renin rat (TGR(mRen2)27)
(§2) The transgenic renin rat ‘TGR(mRen2)27’ is a hypertensive rat line developed by Mullins and Ganten which overexpresses the Ren-2 gene of the mouse. Additional administration of the nitrogen monoxide synthase inhibitor L-NAME induces endothelial dysfunction which increases morbidity and mortality in this model. Unless subjected to life-long antihypertensive therapy, homozygous animals die of secondary complications such as heart and kidney failure or stroke.
(§3) Male TGR(mRen2)27 renin rats aged 10 to 20 weeks are randomized to different pharmacological treatment groups and a placebo group. In addition, the nitrogen monoxide synthase inhibitor L-NAME is administered via the drinking water in a concentration of 30 to 100 mg/l. During the entire experiment, drinking water and feed are available ad libitum to the animals. The substances are administered via the feed or daily by gavage for 4-10 weeks. Animals treated in the same way but receiving either only the solvent or the feed without test substance serve as placebo group. During the experiment, the systolic blood pressure is determined at regular intervals using a tail cuff, and proteinuria and urine electrolyte composition are determined by collecting the urine in metabolic cages. At the end of the experiment, haemodynamic parameters (blood pressure, heart rate, inotropism[dp/dt], relaxation time[tau], maximum left ventricular pressure, left ventricular end-diastolic pressure[LVEDP]) are measured, and the weights of heart, kidney and lung are determined, protein elimination and biomarkers (e.g. ANP, RIA Kit RK 005-24, Phoenix Pharmaceuticals, Inc., USA, cGMP, RIA Kit RE29075, IBL International GmbH, Hamburg, Germany, renin, angiotensin I, RIA Kit CA-1533, DiaSorin S.p.A., Italy, and aldosterone, P2714, DiaSorin S.p.A., Italy) and gene expression of biomarkers by RT/TaqMan PCR following RNA isolation from cardiac and renal tissue are determined.
(§4) Cardiac and cardiovascular disorders as well as renal and cardiorenal disorders are characterized by high patient morbidity and also high mortality. This morbidity and mortality, together with various risk factors such as hypertension, can be reproduced very accurately in the above-described animal model of the L-NAME-treated renin transgenic rat. Therefore, this animal model, for example, was used to investigate MR antagonists such as, for example, finerenone according to the compound of the formula (IV) and sGC activators such as, for example, the compound of the formula (X), and combinations of both: […]
For example, the MR antagonist finerenone, corresponding to the compound of the formula (IV), and the sGC activator, corresponding to the compound of the formula (X), were tested on their own and in combinations in TGR(mRen2)27 renin rats aged 10 to 20 weeks. In addition, the nitrogen monoxide synthase inhibitor L-NAME was administered via the drinking water in a concentration of 30 to 100 mg/l. During the entire experiment, drinking water and feed were available ad libitum to the animals. The substances were administered daily by gavage for 4-10 weeks. Animals treated in the same way but receiving only the solvent for the test substance served as placebo group. In the test series, in addition to placebo (group A), the MR antagonist finerenone (10 mg/kg od) (group B) and the sGC activator corresponding to the compound of the formula (X) (1 mg/kg bid) (group C) on their own and a combination of finerenone (10 mg/kg od)+compound of the formula (X) (1 mg/kg bid) (group D) were administered. In this study, 15 animals were used per group (A, B, C, D) (Table 1):
After 40% of the placebo animals had died—the study was generally terminated once 40-50% of the placebo-treated animals had died, which corresponds to a survival rate of 60-50%—the study was terminated and the survival rates of the individual treatment groups were compared to one another.

Assay [2] has the same test system. Description: Proteinuria (protein/creatinine quotient in urine) in L-NAME-treated renin transgenic rats. Format: in vivo. Conditions: for reduction of proteinuria, measured as protein/creatinine quotient in urine: finerenone 10 mg/kg od, compound of the formula (X) 1 mg/kg bid, alone or combined, versus placebo; for Urinary protein/creatinine quotient, % change vs placebo: proteinuria in % reduction from placebo at the end of the study, mean ± SEM, groups and doses per Table 1.
Text: as §1, §2, §3, §4
Here, the quotient of protein excreted in the urine and creatinine excreted in the urine, the so-called protein/creatinine quotient, which can be used as a quantitative measure for the kidney damage, is determined.

Turning to `C[C@H]([C@H](C(=O)Nc1cc([C@@H](CC(=O)O)C2CC2)ccc1Cl)c1ccc(Cl)cc1)C(F)(F)F` [compound of the formula (X), (3S)-3-(4-chloro-3-{[(2S,3R)-2-(4-chlorophenyl)-4,4,4-trifluoro-3-methylbutanoyl]amino}phenyl)-3-cyclopropylpropanoic acid], in assay [1], the Mortality is 27%, the survival rate worked out at 73% and the “animals died during the study period” value is given as 27%. Further, in assay [2], the “reduction of proteinuria, measured as protein/creatinine quotient in urine” value is 8% and the “Urinary protein/creatinine quotient, % change vs placebo” value is −8 + 20%.

As to `CCOc1ncc(C)c2c1[C@H](c1ccc(C#N)cc1OC)C(C(N)=O)=C(C)N2` [finerenone, (S)-4-(4-cyano-2-methoxyphenyl)-5-ethoxy-2,8-dimethyl-1,4-dihydro-1,6-naphthyridine-3-carboxamide], in assay [1], the Mortality worked out at 20%, the survival rate was 80% and the “animals died during the study period” value is recorded as 20%. In assay [2], the “reduction of proteinuria, measured as protein/creatinine quotient in urine” value came to 58% and the “Urinary protein/creatinine quotient, % change vs placebo” value is reported as −58 + 16%.
